Laboratory results: patent US9187428B2, “Substituted dicyanopyridines and use thereof” (Bayer Intellectual Property GmbH, priority 2010, dated 2015)
Counter-ions that a name gives are not always drawn.

Tests used:
Type in all cases: cell-based
adenosine A1 receptor = adenosine A1 receptor (Homo sapiens (Human), UniProt P30542); test: Indirect determination of adenosine agonism by gene expression (luciferase reporter), A1 cells; conditions: CHO cells stably transfected with adenosine A1 receptor; 1 μM forskolin; 50% inhibition of luciferase response
Source text: (§1) B-1. Indirect Determination of the Adenosine Agonism by Way of Gene Expression
(§2) Cells of the CHO (Chinese Hamster Ovary) permanent line are transfected stably with the cDNA for the adenosine receptor subtypes A1, A2a and A2b. The adenosine A1 receptors are coupled to the adenylate cyclase by way of Gi proteins, while the adenosine A2a and A2b receptors are coupled by way of Gs proteins. In correspondence with this, the formation of cAMP in the cell is inhibited or stimulated, respectively. After that, expression of the luciferase is modulated by way of a cAMP-dependent promoter. The luciferase test is optimized, with the aim of high sensitivity and reproducibility, low variance and good suitability for implementation on a robot system, by varying several test parameters, such as cell density, duration of the growth phase and the test incubation, forskolin concentration and medium composition. The following test protocol is used for pharmacologically characterizing cells and for the robot-assisted substance screening:
(§3) The stock cultures are grown, at 37° C. and under 5% CO2, in DMEM/F12 medium containing 10% FCS (fetal calf serum) and in each case split 1:10 after 2-3 days. Test cultures are seeded in 384-well plates with 2000 cells per well and grown at 37° C. for approx. 48 hours. The medium is then replaced with a physiological sodium chloride solution (130 mM sodium chloride, 5 mM potassium chloride, 2 mM calcium chloride, 20 mM HEPES, 1 mM magnesium chloride hexahydrate, 5 mM sodium bicarbonate, pH 7.4). The substances to be tested, which are dissolved in DMSO, are pipetted into the test cultures (maximum final concentration of DMSO in the test mixture: 0.5%) in a dilution series of from 5×10^−11 M to 3×10^−6 M (final concentration). 10 minutes later, forskolin is added to the A1 cells and all the cultures are subsequently incubated at 37° C. for four hours. After that, 35 μl of a solution which is composed of 50% lysis reagent (30 mM disodium hydrogenphosphate, 10% glycerol, 3% TritonX100, 25 mM TrisHCl, 2 mM dithiotreitol (DTT), pH 7.8) and 50% luciferase substrate solution (2.5 mM ATP, 0.5 mM luciferin, 0.1 mM coenzyme A, 10 mM tricine, 1.35 mM magnesium sulfate, 15 mM DTT, pH 7.8) are added to the test cultures, which are shaken for approx. 1 minute and the luciferase activity is measured using a camera system. The EC50 values are determined, i.e., the concentrations at which 50% of the luciferase response is inhibited in the case of the A1 cell, and, respectively, 50% of the maximum stimulation with the corresponding substance is achieved in the case of the A2b and A2a cells. […] Pharmacol., 357, 1-9 (1998)].
(§4) Table A below lists the EC50 values of representative working examples for the receptor stimulation on adenosine A1, A2a and A2b receptor subtypes: […]

adenosine A2a receptor = adenosine A2a receptor (Homo sapiens (Human), UniProt P29274); test: Indirect determination of adenosine agonism by gene expression (luciferase reporter), A2a cells; conditions: CHO cells stably transfected with adenosine A2a receptor, 50% of maximum stimulation
Source text: as §1, §2, §3, §4

adenosine A2b receptor = adenosine A2b receptor (Homo sapiens (Human), UniProt P29275); test: Indirect determination of adenosine agonism by gene expression (luciferase reporter), A2b cells; conditions: CHO cells stably transfected with adenosine A2b receptor, 50% of maximum stimulation
Source text: as §1, §2, §3, §4

Sequence of adenosine A2b receptor (P29275 whole entry): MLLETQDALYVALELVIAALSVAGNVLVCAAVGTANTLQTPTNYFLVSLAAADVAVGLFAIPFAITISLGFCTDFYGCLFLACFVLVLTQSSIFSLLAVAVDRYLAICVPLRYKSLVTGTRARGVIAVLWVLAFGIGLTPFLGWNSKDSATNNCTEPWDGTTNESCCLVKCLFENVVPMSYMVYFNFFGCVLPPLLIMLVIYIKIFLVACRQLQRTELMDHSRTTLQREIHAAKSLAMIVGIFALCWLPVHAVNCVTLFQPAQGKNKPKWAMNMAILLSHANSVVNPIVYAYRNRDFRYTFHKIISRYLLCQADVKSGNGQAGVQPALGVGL
Sequence of adenosine A1 receptor (P30542 whole entry): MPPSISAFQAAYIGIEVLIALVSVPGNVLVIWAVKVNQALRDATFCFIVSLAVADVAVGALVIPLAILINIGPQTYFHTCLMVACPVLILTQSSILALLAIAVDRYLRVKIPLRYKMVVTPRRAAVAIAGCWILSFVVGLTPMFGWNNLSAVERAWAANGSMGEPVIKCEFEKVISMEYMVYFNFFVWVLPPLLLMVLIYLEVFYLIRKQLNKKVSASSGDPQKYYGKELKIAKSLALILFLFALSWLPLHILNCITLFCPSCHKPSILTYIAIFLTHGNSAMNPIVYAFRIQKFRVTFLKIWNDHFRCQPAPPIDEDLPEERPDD
Sequence of adenosine A2a receptor (P29274 whole entry): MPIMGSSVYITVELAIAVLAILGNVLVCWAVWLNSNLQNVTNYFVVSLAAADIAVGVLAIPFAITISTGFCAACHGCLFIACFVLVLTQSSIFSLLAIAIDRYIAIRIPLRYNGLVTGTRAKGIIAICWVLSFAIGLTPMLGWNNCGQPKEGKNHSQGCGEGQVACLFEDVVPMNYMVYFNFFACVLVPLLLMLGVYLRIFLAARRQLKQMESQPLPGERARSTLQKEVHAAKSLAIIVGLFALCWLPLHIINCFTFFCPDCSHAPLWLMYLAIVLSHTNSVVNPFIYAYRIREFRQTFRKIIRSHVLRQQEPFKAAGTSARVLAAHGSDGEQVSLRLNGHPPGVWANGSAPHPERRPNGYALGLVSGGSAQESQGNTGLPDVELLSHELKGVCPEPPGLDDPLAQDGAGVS

CNC(=O)c1cc(C(C)Sc2nc(N)c(C#N)c(-c3ccc(OCC(F)(F)F)cc3)c2C#N)ccn1 (racemic) [Example 56, rac-4-[1-({6-Amino-3,5-dicyano-4-[4-(2,2,2-trifluoroethoxy)phenyl]pyridin-2-yl}sulfanyl)ethyl]-N-methylpyridine-2-carboxamide]
EC50 (adenosine A1 receptor): 2.8 nM
EC50 (adenosine A2a receptor): ≥ 3000 nM
EC50 (adenosine A2b receptor): ≥ 3000 nM

CC(Sc1nc(N)c(C#N)c(-c2ccc(OCCO)cc2)c1C#N)c1cccc(C(N)=O)c1 (racemic) [Example 60, rac-3-[1-({6-Amino-3,5-dicyano-4-[4-(2-hydroxyethoxy)phenyl]pyridin-2-yl}sulfanyl)ethyl]-benzenecarboxamide]
EC50 (adenosine A1 receptor): 0.4 nM
EC50 (adenosine A2a receptor): ≥ 3000 nM
EC50 (adenosine A2b receptor): 1440 nM

CNC(=O)c1cccc(C(C)Sc2nc(N)c(C#N)c(-c3ccc(OCCO)cc3)c2C#N)c1 (racemic) [Example 62, rac-3-[1-({6-Amino-3,5-dicyano-4-[4-(2-hydroxyethoxy)phenyl]pyridin-2-yl}sulfanyl)ethyl]-N-methylbenzenecarboxamide]
EC50 (adenosine A1 receptor): 0.3 nM
EC50 (adenosine A2a receptor): ≥ 3000 nM
EC50 (adenosine A2b receptor): 262 nM

CNC(=O)c1cc(CSc2nc(N)c(C#N)c(-c3ccc(F)cc3)c2C#N)ccn1 [Example 2]
EC50 (adenosine A1 receptor): 0.3 nM

CNC(=O)c1cc(CSc2nc(N)c(C#N)c(-c3ccc(OC)cc3)c2C#N)ccn1 [Example 3]
EC50 (adenosine A1 receptor): 0.2 nM
EC50 (adenosine A2a receptor): 425 nM

CNC(=O)c1cc(CSc2nc(N)c(C#N)c(-c3ccc4c(c3)OCCO4)c2C#N)ccn1 [Example 6]
EC50 (adenosine A1 receptor): 0.06 nM
EC50 (adenosine A2b receptor): 71 nM

CNC(=O)c1cc(CSc2nc(N)c(C#N)c(-c3ccc(OCC(C)(C)O)cc3)c2C#N)ccn1 [Example 7]
EC50 (adenosine A1 receptor): 0.1 nM
EC50 (adenosine A2a receptor): 460 nM
EC50 (adenosine A2b receptor): 32 nM

N#Cc1c(N)nc(SCc2cccc(C(=O)O)c2)c(C#N)c1-c1ccc(F)cc1 [Example 14, 3-({[6-amino-3,5-dicyano-4-(4-fluorophenyl)pyridin-2-yl]sulfanyl}methyl)-benzenecarboxylic acid]
EC50 (adenosine A1 receptor): 3.5 nM

N#Cc1cnc(SCc2cccc(C(=O)O)c2)c(C#N)c1-c1ccccc1 [Example 15]
EC50 (adenosine A1 receptor): 0.8 nM
EC50 (adenosine A2b receptor): 106 nM

CNC(=O)c1cc(COc2nc(N)c(C#N)c(-c3ccc(F)cc3)c2C#N)ccn1 [Example 21, 4-({[6-Amino-3,5-dicyano-4-(4-fluorophenyl)pyridin-2-yl]oxy}methyl)-N-methylpyridine-2-carboxamide]
EC50 (adenosine A1 receptor): 0.9 nM

CCOc1ccc(-c2c(C#N)c(N)nc(SCc3ccnc(C(=O)NC)c3)c2C#N)cc1 [Example 26]
EC50 (adenosine A1 receptor): 0.2 nM
EC50 (adenosine A2a receptor): 65 nM
EC50 (adenosine A2b receptor): 243 nM

CNC(=O)c1cc(CSc2nc(N)c(C#N)c(-c3ccc(F)c(OC)c3)c2C#N)ccn1 [Example 27]
EC50 (adenosine A1 receptor): 0.3 nM

CNC(=O)c1cc(CSc2nc(N)c(C#N)c(-c3ccc(NC)cc3)c2C#N)ccn1 [Example 28]
EC50 (adenosine A1 receptor): 0.4 nM
EC50 (adenosine A2a receptor): 1640 nM

CNC(=O)c1cc(CSc2nc(N)c(C#N)c(-c3cccc(OCCO)c3)c2C#N)ccn1 [Example 29]
EC50 (adenosine A1 receptor): 0.5 nM

CNC(=O)c1cc(CSc2ncc(C#N)c(-c3ccc(OCCO)cc3)c2C#N)ccn1 [Example 30]
EC50 (adenosine A1 receptor): 0.4 nM
EC50 (adenosine A2a receptor): 1110 nM
EC50 (adenosine A2b receptor): 122 nM

CNC(=O)c1cc(CSc2ncc(C#N)c(-c3ccc(OC)cc3)c2C#N)ccn1 [Example 31]
EC50 (adenosine A1 receptor): 1.6 nM
EC50 (adenosine A2a receptor): 707 nM
EC50 (adenosine A2b receptor): 708 nM

CNC(=O)c1cc(CSc2ncc(C#N)c(-c3ccccc3)c2C#N)ccn1 [Example 32]
EC50 (adenosine A1 receptor): 0.4 nM
EC50 (adenosine A2b receptor): 2120 nM

CS(=O)(=O)Nc1cccc(CSc2nc(N)c(C#N)c(-c3ccc(F)cc3)c2C#N)c1 [Example 37]
EC50 (adenosine A1 receptor): 0.7 nM
EC50 (adenosine A2a receptor): 1780 nM

CS(=O)(=O)Nc1cccc(CSc2nc(N)c(C#N)c(-c3ccc(F)c(F)c3)c2C#N)c1 [Example 38]
EC50 (adenosine A1 receptor): 0.5 nM

CNC(=O)c1cc(CSc2nc(N)c(C#N)c(-c3ccc(OC)cc3OC)c2C#N)ccn1 [Example 44]
EC50 (adenosine A1 receptor): 0.4 nM

CNC(=O)c1cc(CSc2nc(N)c(C#N)c(-c3ccc(OS(=O)(=O)N(C)C)cc3)c2C#N)ccn1 [Example 46]
EC50 (adenosine A1 receptor): 0.04 nM
EC50 (adenosine A2a receptor): 781 nM
EC50 (adenosine A2b receptor): 425 nM

CCCOc1cccc(-c2c(C#N)c(N)nc(SCc3ccnc(C(=O)NC)c3)c2C#N)c1 [Example 49]
EC50 (adenosine A1 receptor): 0.3 nM

CNC(=O)c1cc(CSc2nc(N)c(C#N)c(-c3ccc(F)c(C(F)(F)F)c3)c2C#N)ccn1 [Example 50]
EC50 (adenosine A1 receptor): 0.5 nM

CNC(=O)c1cc(CSc2nc(N)c(C#N)c(-c3cc(F)cc(F)c3)c2C#N)ccn1 [Example 51]
EC50 (adenosine A1 receptor): 0.2 nM

CNC(=O)c1cc(CSc2nc(N)c(C#N)c(-c3ccc(F)c(F)c3)c2C#N)ccn1 [Example 53]
EC50 (adenosine A1 receptor): 0.3 nM

CNC(=O)c1cc(CSc2nc(N)c(C#N)c(-c3ccc(OCCN)cc3)c2C#N)ccn1 [Example 54, 4-[({6-Amino-4-[4-(2-aminoethoxy)phenyl]-3,5-dicyanopyridin-2-yl}sulfanyl)methyl]-N-methylpyridine-2-carboxamide trifluoroacetate]
EC50 (adenosine A1 receptor): 0.04 nM
EC50 (adenosine A2a receptor): 114 nM
EC50 (adenosine A2b receptor): 169 nM

CNC(=O)c1cc(CSc2nc(N)c(C#N)c(-c3ccc(OCCNC(=O)[C@H](C)N)cc3)c2C#N)ccn1 [Example 55, 4-{[(4-{4-[2-(L-Alanylamino)ethoxy]phenyl}-6-amino-3,5-dicyanopyridin-2-yl)sulfanyl]methyl}-N-methylpyridine-2-carboxamide trifluoroacetate]
EC50 (adenosine A1 receptor): 0.4 nM
EC50 (adenosine A2a receptor): 402 nM
EC50 (adenosine A2b receptor): 268 nM

N#Cc1cnc(SCc2cccc(C(N)=O)c2)c(C#N)c1-c1ccccc1 [Example 65, 3-{[(3,5-Dicyano-4-phenylpyridin-2-yl)sulfanyl]methyl}benzenecarboxamide]
EC50 (adenosine A1 receptor): 3.3 nM
EC50 (adenosine A2b receptor): 571 nM

N#Cc1cnc(SCc2cccc(C(=O)NCCO)c2)c(C#N)c1-c1ccccc1 [Example 66, 3-{[(3,5-Dicyano-4-phenylpyridin-2-yl)sulfanyl]methyl}-N-(2-hydroxyethyl)benzenecarboxamide]
EC50 (adenosine A1 receptor): 1.3 nM

N#Cc1c(N)nc(OCc2ccnc(C(=O)NC3CC3)c2)c(C#N)c1-c1ccccc1 [Example 68]
EC50 (adenosine A1 receptor): 0.4 nM
EC50 (adenosine A2a receptor): 1740 nM
EC50 (adenosine A2b receptor): 440 nM

CNC(=O)c1cc(CSc2nc(N3CC(O)C3)c(C#N)c(-c3ccc(OC)cc3)c2C#N)ccn1 [Example 72]
EC50 (adenosine A1 receptor): 0.5 nM

CNC(=O)c1cc(CSc2nc(N3CC(O)C3)c(C#N)c(-c3ccc(F)c(F)c3)c2C#N)ccn1 [Example 74]
EC50 (adenosine A1 receptor): 2.4 nM

CNC(=O)c1cc(CSc2nc(N3CC[C@@H](O)C3)c(C#N)c(-c3ccc4c(c3)OCCO4)c2C#N)ccn1 [Example 82]
EC50 (adenosine A1 receptor): 0.2 nM
EC50 (adenosine A2a receptor): 1980 nM

CNC(=O)c1cc(CSc2nc(NCCO)c(C#N)c(-c3ccc(OC)cc3)c2C#N)ccn1 [Example 84]
EC50 (adenosine A1 receptor): 0.4 nM

N#Cc1c(SCc2ccnc(C(=O)NC3CC3)c2)nc(N2CCCC2)c(C#N)c1-c1ccccc1 [Example 85]
EC50 (adenosine A1 receptor): 0.5 nM
EC50 (adenosine A2a receptor): 1020 nM

CNC(=O)c1cc(CSc2nc(NCC(O)C(F)(F)F)c(C#N)c(-c3ccccc3)c2C#N)ccn1 (stereo not shown) [Example 87]
EC50 (adenosine A1 receptor): 0.6 nM

CNC(=O)c1cc(CSc2nc(NCCO)c(C#N)c(-c3ccccn3)c2C#N)ccn1 [Example 88]
EC50 (adenosine A1 receptor): 0.7 nM
EC50 (adenosine A2a receptor): 1980 nM

CNC(=O)c1cc(COc2nc(N3CC(O)C3)c(C#N)c(-c3ccccc3)c2C#N)ccn1 [Example 93, 4-({[3,5-Dicyano-6-(3-hydroxyazetidin-1-yl)-4-phenylpyridin-2-yl]oxy}methyl)-N-methylpyridine-2-carboxamide]
EC50 (adenosine A1 receptor): 0.9 nM

CNC(=O)c1cccc(CSc2nc(N3CC[C@@H](O)C3)c(C#N)c(-c3ccc(OCCO)cc3)c2C#N)c1 [Example 94, 3-[({3,5-Dicyano-4-[4-(2-hydroxyethoxy)phenyl]-6-[(3R)-3-hydroxypyrrolidin-1-yl]pyridin-2-yl}-sulfanyl)methyl]-N-methylbenzenecarboxamide]
EC50 (adenosine A1 receptor): 0.2 nM

N#Cc1c(N)nc(SCc2cccc(C(=O)NC[C@@H](O)CO)c2)c(C#N)c1-c1ccc(F)cc1 [Example 96, 3-({[6-Amino-3,5-dicyano-4-(4-fluorophenyl)pyridin-2-yl]sulfanyl}methyl)-N-[(2R)-2,3-dihydroxypropyl]benzenecarboxamide]
EC50 (adenosine A1 receptor): 0.4 nM
EC50 (adenosine A2b receptor): 204 nM
